In ChEMBL document CHEMBL1127171, “N-2 methylated quaternary derivatives of -carboline-3-carboxylates inhibit acetylcholinesterase in vitro” (Bioorg Med Chem Lett, 1993):
The source made the active and inactive calls. The rule behind the calls is not given here.

Experiments:
[1] = molecular target: Muscarinic acetylcholine receptor; assay: The compound was tested in vitro for its binding affinity to muscarinic receptor on rat brain membrane by competitive binding assay using [3H]-QNB
[2] = molecular target: Acetylcholinesterase (Electrophorus electricus) (UniProt O42275); assay: The compound was tested in vitro for the inhibition of acetylcholinesterase (AChE) isolated from electric eel at 10e-6 M
[3] = molecular target: GABA-A receptor; anion channel; assay: Displacement of [3H]flunitrazepam from GABA-A benzodiazepine receptor (BZR) of rat brain membranes; assay type: cell membranes, Membrane
[4] = molecular target: Acetylcholinesterase (Electrophorus electricus) (UniProt O42275); assay: The compound was tested in vitro for the inhibition of acetylcholinesterase (AChE) isolated from electric eel at 10e-5 M
[5] = molecular target: GABA-A receptor; anion channel; assay: Displacement of [3H]flunitrazepam from GABA-A benzodiazepine receptor (BZR) of rat brain membranes (NA = no significant activity); assay type: cell membranes, Membrane
[6] = molecular target: Acetylcholinesterase (Electrophorus electricus) (UniProt O42275); assay: The compound was tested in vitro for the inhibition of acetylcholinesterase (AChE) isolated from electric eel at 10e-5 M; NA means no significant activity at 10e-3 M
[7] = molecular target: Acetylcholinesterase (Electrophorus electricus) (UniProt O42275); assay: The compound was tested in vitro for the inhibition of acetylcholinesterase (AChE) isolated from electric eel at 10e-6 M; NA means no significant activity at 10e-3 M
[8] = system: GABA-A receptor; anion channel; assay: Displacement of [3H]flunitrazepam from GABA-A benzodiazepine receptor (BZR) of rat brain membranes (NA = no significant activity at 10e-3 M); assay type: cell membranes, Membrane

Sequence of Acetylcholinesterase (Electrophorus electricus) (O42275 24-633 limits assumed): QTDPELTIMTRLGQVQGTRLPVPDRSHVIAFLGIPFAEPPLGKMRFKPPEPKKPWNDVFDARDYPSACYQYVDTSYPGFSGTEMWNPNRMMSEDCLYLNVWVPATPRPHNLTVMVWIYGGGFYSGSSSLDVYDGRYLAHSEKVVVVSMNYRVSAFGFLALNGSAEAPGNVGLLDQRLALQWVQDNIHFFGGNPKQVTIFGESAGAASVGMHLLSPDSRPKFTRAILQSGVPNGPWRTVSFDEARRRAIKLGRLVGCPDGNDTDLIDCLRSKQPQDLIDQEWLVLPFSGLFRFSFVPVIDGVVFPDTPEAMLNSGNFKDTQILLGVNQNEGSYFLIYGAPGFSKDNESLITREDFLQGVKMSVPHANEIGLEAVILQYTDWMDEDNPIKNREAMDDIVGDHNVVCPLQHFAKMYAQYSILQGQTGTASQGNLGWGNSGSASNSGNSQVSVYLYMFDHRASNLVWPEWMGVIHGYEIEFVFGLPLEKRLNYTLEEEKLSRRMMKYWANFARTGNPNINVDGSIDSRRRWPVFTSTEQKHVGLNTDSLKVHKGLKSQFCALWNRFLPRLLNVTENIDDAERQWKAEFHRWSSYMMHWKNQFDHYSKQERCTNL

CCOC(=O)c1cc2c(c[n+]1C)[nH]c1ccccc12.[I-]
Ki [1]: 0.7 µM
inhibition [2]: 13.7%
Ki [3]: 3.2 µM
inhibition [4]: 60.9%

CCCCOC(=O)c1cc2c(c[n+]1C)[nH]c1ccccc12.[I-]
Ki [1]: 0.5 µM
inhibition [2]: 46%
Ki [3]: 4.6 µM
inhibition [4]: 88%

CN(C)C(=O)Oc1ccc[n+](C)c1
inhibition [2]: 59%
inhibition [4]: 93%

CCCOC(=O)c1cc2c(c[n+]1C)[nH]c1ccccc12.[I-]
Ki [1]: 1 µM
inhibition [2]: 34.9%
Ki [3]: 0.6 µM
inhibition [4]: 80.1%

COC(=O)c1cc2c(cn1)[nH]c1ccccc12 [BETA-CCM]
Ki [5]: 0.003 µM
inhibition [6]: inactive
inhibition [7]: inactive

C[n+]1ccc2c(c1)[nH]c1ccccc12 [NORMELINONINE F]
inhibition [2]: 7.6%
Ki [8]: Not Active
inhibition [4]: 41.2%

CNC(=O)c1cc2c(c[n+]1C)[nH]c1ccccc12.[I-]
Ki [1]: 27 µM
inhibition [2]: 1.3%
Ki [3]: 0.6 µM
inhibition [4]: 7.4%

CC(C)OC(=O)c1cc2c(c[n+]1C)[nH]c1ccccc12.[I-]
Ki [1]: 0.5 µM
inhibition [2]: 14%
Ki [3]: 4.1 µM
inhibition [4]: 62%

CCOC(=O)c1cc2cc[nH]c2c[n+]1C.[I-]
inhibition [2]: 4%
Ki [8]: Not Active
inhibition [4]: 17%

COC(=O)c1cc2c(c[n+]1C)[nH]c1ccccc12
Ki [1]: 3.1 µM
inhibition [2]: 7.2%
Ki [3]: 1.4 µM
inhibition [4]: 43.1%
